PMC6631596, “Analgesic and Anti-Inflammatory Activities of Quercetin-3-methoxy-4′-glucosyl-7-glucoside Isolated from Indian Medicinal Plant Melothria heterophylla” (Medicines, 2019)

Experiments:
COX-1 = target: T1, COX-1 (Ovis aries, UniProt P05979); experiment: Cayman COX inhibitor screening assay (prostaglandin ELISA); assay type: biochemical
T1 construct: gene PTGS1; ovine COX-1
T1 sequence (P05979 25-600): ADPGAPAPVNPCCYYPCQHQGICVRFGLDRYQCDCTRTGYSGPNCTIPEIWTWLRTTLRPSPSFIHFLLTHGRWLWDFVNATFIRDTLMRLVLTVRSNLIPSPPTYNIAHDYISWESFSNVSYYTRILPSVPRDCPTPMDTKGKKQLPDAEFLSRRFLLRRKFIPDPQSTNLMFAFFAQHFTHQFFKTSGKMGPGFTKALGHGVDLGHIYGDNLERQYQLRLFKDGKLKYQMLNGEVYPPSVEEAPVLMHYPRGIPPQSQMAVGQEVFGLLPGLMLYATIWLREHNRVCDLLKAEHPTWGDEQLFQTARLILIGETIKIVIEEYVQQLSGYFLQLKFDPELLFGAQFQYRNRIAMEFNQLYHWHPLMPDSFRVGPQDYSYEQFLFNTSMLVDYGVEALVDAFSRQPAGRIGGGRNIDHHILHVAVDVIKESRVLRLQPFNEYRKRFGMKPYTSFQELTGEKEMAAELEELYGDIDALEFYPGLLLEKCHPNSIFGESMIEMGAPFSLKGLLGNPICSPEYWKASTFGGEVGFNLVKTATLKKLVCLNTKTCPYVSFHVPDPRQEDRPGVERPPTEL

COX-2 = target: T2, COX-2 (Homo sapiens, UniProt P35354); experiment: as above; assay type: biochemical
T2 construct: gene PTGS2; human recombinant COX-2
T2 sequence (P35354 18-604): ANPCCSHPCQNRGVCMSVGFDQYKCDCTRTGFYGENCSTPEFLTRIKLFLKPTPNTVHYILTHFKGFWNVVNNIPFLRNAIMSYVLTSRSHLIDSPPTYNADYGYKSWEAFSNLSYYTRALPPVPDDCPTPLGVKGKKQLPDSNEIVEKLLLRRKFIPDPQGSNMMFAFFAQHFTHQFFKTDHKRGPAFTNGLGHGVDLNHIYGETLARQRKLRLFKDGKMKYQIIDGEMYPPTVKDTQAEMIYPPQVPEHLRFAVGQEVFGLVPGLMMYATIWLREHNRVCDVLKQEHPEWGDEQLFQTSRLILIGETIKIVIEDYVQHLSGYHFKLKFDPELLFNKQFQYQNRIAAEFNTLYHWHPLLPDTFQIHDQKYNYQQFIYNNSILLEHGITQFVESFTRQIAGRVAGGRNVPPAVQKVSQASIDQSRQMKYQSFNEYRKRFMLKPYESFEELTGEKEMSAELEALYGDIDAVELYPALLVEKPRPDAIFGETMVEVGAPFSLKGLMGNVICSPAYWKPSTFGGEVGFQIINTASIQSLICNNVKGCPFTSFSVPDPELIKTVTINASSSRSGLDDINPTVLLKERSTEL

IC50 (COX-1): 4.31 µM
IC50 (COX-2): 3.11 µM
Structure (SMILES): COc1c(-c2ccc(O[C@@H]3O[C@H](CO)[C@@H](O)[C@H](O)[C@H]3O)c(O)c2)oc2cc(O[C@@H]3O[C@H](CO)[C@@H](O)[C@H](O)[C@H]3O)cc(O)c2c1=O [quercetin-3-methoxy-4′-glucosyl-7-glucoside]
